Earlier results, collected in patent publication US20080206335A1, “[…] CONTROLLED RELEASE SELECTIVE SEROTONIN […] INHIBITOR FORMULATIONS” (priority 1999, published 2008).

Settings: steady state after multiple oral doses of 100 mg/day, healthy young volunteers

plasma elimination half-life: 15.6 h
SMILES: COCCCC/C(=N\OCCN)c1ccc(C(F)(F)F)cc1.O=C(O)/C=C\C(=O)O [fluvoxamine, 5-methoxy-4′-(trifluoromethyl)valerophenone-(E)-O-(2-aminoethyl) oxime maleate (1:1)]
